Measurements reported in publication PMC10146281, “Pharmacokinetic and Pharmacodynamic Characteristics of Pelubiprofen Tromethamine vs. Pelubiprofen in Healthy Subjects” (Pharmaceutics, 2023).
Like-named read-outs stand apart in the source and are kept apart here.

Molecular target: T1, cyclooxygenase-2 (COX-2) (Homo sapiens, UniProt P35354)
T1 sequence (P35354 18-604): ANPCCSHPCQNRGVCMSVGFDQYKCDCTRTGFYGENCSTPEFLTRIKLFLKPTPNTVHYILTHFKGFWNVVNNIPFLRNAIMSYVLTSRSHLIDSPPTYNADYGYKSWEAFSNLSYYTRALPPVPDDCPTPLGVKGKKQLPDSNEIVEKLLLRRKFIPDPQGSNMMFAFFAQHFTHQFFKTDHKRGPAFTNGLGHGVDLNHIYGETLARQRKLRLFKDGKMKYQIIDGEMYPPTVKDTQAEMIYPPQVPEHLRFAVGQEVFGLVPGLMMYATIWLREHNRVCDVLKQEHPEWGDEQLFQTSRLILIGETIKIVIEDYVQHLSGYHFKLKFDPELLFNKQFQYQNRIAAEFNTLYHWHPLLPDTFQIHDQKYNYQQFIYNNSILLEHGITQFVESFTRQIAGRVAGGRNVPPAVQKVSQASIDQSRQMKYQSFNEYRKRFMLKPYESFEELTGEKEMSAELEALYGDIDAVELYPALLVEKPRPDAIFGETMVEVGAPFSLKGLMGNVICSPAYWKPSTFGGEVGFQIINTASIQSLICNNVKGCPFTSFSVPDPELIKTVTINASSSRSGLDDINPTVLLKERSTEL
Procedure: To analyze the pharmacodynamic (PD) characteristics, approximately 1 mL of blood was sampled from the subjects in Study I, who had agreed to participate in the associated PD evaluation. The blood sampling was performed before administration (0 h) and at the following time points after administration: 0.083 h (5 min), 0.167 h (10 min), 0.33 h (20 min) and 0.5, 0.75, 1, 1.5, 2, 2.5, 3, 3.5, 4, 6, and 8 h. Therefore, for each subject, the blood sampling was performed 15 times in each period. While the PD analysis was performed on the same schedule as the PK analysis, only period 1 and 2 results were included in the analyses, and the post study visit was not performed.
The pharmacodynamic (PD) analysis was performed on the subjects in Study I, who had agreed to participate in the PD evaluation. For pharmacodynamic evaluation, the lipopolysaccharide (LPS) from E. coli O111:B4 (Sigma-Aldrich, Seoul, Republic of Korea) and the prostaglandin E2 (PGE2) enzyme-linked immunosorbent assay (ELISA) monoclonal kit (Cayman Chemical, MI, USA) were used. This study was conducted on healthy subjects, and LPS was added to sampled blood to induce inflammatory gene expression. The following procedures were applied for the PGE2 concentration analysis of subjects in Study I, who had agreed to participate in the pharmacodynamic evaluation.
Into 1.0 mL of sampled blood, 10 μL of lipopolysaccharide (LPS) was added. The mixture was centrifuged at […] and 4 °C for 10 min. By mixing the PGE2 ELISA standard and 1.0 mL of ELISA buffer, the standard reagents were produced at 1000, 500, 250, 125, 62.5, 31.3, 15.6, 7.8 pg/mL concentrations. Subsequently, to each well of the 96-well plate, 50 μL of the standard reagent, PGE2 acetylcholinesterase (AChE) tracer, and PGE2 monoclonal antibody were added. Each plate was then covered with a plastic film to be cultured at 4 °C for 18 h. Then, the wells were washed with the buffer solution 5 times, after which 200 μL of Ellman’s reagent was added to each well. The plate was covered with film once more to be placed on an orbital shaker for 60 min. The plate was read at a wavelength of 410 nm.
Pharmacodynamic (PD) was analyzed with data from the first and second periods. The plasma Prostaglandin E2 (PGE2) concentration in the first and second periods of Study I was measured using the enzyme-linked immunosorbent assay (ELISA) at the same time points as in the PK analysis: before investigational drug administration (0 h) and after drug administration at 0.083 h (5 min), 0.167 h (10 min), 0.33 h (20 min), and 0.5, 0.75, 1, 1.5, 2, 2.5, 3, 3.5, 4, 6, and 8 h. Therefore, for each subject, the measurements were taken 15 times in each period. While the PD analysis was performed on the same schedule as the PK analysis, only period 1 and 2 results were included in the analyses, and the post-study visit was not performed.
The PGE2 concentration and the cyclooxygenase-2 (COX-2) inhibitory effect derived from baseline (0 h time point before drug administration) values for each subject in Study I were visualized. The decreased level of calibrated PGE2 concentration performed in accordance with the concentration at baseline for each subject was tested as the extent of COX-2 inhibition, and the GMR and respective 90% CI of the COX-2 inhibition were applied in the PD analysis.
The pharmacodynamic (PD) data from the subjects in Study I, who had agreed to participate in the PD evaluation, were analyzed as follows to check for outliers. Grubbs’ test was performed when the normality of the data was satisfied; otherwise, a boxplot was drawn for log-transformed values, after which values outside the interquartile range (IQR) were checked for subsequent use in Grubb’s test. For significant outliers, the data excluding the values were analyzed once again.

[1] = Study I, all subjects N = 30, 25 mg pelubiprofen tromethamine vs. 30 mg pelubiprofen
[2] = Study I, without outliers N = 28, 25 mg pelubiprofen tromethamine vs. 30 mg pelubiprofen

CC(C(=O)O)c1ccc(/C=C2\CCCCC2=O)cc1 (stereo not drawn) [Pelubiprofen Tromethamine, pelubiprofen tromethamine]
Tmax,i (time of peak baseline-corrected COX-2 inhibition) (Study I periods 1 and 2, all subjects N = 30, single oral 25 mg pelubiprofen tromethamine, median (minimum–maximum)): 0.50 (0.00–3.50) h | Tmax,I (time of peak baseline-corrected COX-2 inhibition) (Study I periods 1 and 2, without outliers (A03 and A08) N = 28, single oral 25 mg pelubiprofen tromethamine, median (minimum–maximum)): 0.50 (0.17–3.50) h | Geometric Mean Ratio (90% CI) of AUIC [1]: 1.09 (0.94–1.27) | Geometric Mean Ratio (90% CI) of Imax [1]: 0.98 (0.95–1.02) | Geometric Mean Ratio (90% CI) of Tmax,i [1]: 1.01 (0.75–1.35) | maximum COX-2 inhibitory effect compared to the reference (Study I, all subjects, 25 mg pelubiprofen tromethamine compared to 30 mg pelubiprofen): approximately 98% | COX-2 inhibitory effect compared to the reference (Study I, excluding two outlier subjects (A03 and A08), 25 mg pelubiprofen tromethamine compared to 30 mg pelubiprofen): approximately 98% | Geometric Mean Ratio (90% CI) of AUIC [2]: 1.03 (0.91–1.18) | Geometric Mean Ratio (90% CI) of Imax [2]: 0.98 (0.95–1.01) | Geometric Mean Ratio (90% CI) of Tmax,I [2]: 1.00 (0.73–1.36) | Geometric Mean Ratio (90% CI) of Imax (Study I, without outliers N = 28, 25 mg pelubiprofen tromethamine vs. 30 mg pelubiprofen, listed as pelubiprofen tromethamine): approximately 0.98

CC(C(=O)O)c1ccc(/C=C2\CCCCC2=O)cc1 (stereo not drawn) [Pelubiprofen, 2-[4-(oxocyclohexylidenemethyl)-phenyl] propionic acid]
time after administration until which COX-2 inhibition was maintained (Study I, single oral 30 mg pelubiprofen): approximately 8 h | Tmax,I (time of peak baseline-corrected COX-2 inhibition) (human, in vivo, po, 30 mg): 0.50 (0.33–3.50) h | Tmax,PGE2 (human, in vivo, po, 30 mg): 0.08 (0.00–8.00) h | Tmax,i (time of peak baseline-corrected COX-2 inhibition) (human, in vivo, po, 30 mg): 0.50 (0.33–3.50) h
